This note sets out measurements from patent US8029770B2 (Rutgers, The State University, priority 2003, dated 2011).

For test [1], the system named is prostate tumor cell line PC-3. Briefly: Apoptosis in prostate tumor cell line PC-3. In kind it is cell-based.
The subject of test [2] is apoptotic sunburn cells in the epidermis of C57/BL/6J p53(−/−) mice. Briefly: UVB-induced apoptotic sunburn cells in C57/BL/6J p53(−/−) mice, topical caffeine. The class given is in vivo, mouse. On the procedure: (§1) The time course for apoptosis was determined by utilizing morphologically distinct sunburn cells as the marker for apoptosis. […] Accordingly, studies with a C57/BL/6J mouse were performed with a 60 mJ/cm^2 dose of UVB.
(§2) Measurement of apoptotic sunburn cells. Identification of apoptoic sunburn cells was based morphologically on cell shrinkage and nuclear condensation due to fragmentation of the cells. […] The percentage of apoptotic sunburn cells in the epidermis (basal plus suprabasal layers) was calculated from the number of these cells per 100 cells counted from the entire 20 mm length of epidermis for each skin section.

Test [3] deals with apoptotic sunburn cells in the epidermis of C57/BL/6J p53(+/+) mice. Briefly: UVB-induced apoptotic sunburn cells in C57/BL/6J p53(+/+) mice, topical caffeine. In kind it is in vivo, mouse. As to the method: as §1, §2

Each structure is given as a SMILES string.

Consider `Cn1c(=O)c2c(ncn2C)n(C)c1=O.O=C([O-])c1ccccc1.[Na+]` [Caffeine Sodium Benzoate, caffeine sodium benzoate], for which the “apoptosis in PC-3” value in test [1] (0.1, 0.2 or 0.5 mM for 96 hours) is listed as “dose-response relationship on apoptosis”. Also, in test [1] (PC-3, 0.1, 0.2 or 0.5 mM, 96 hours), the “pro-apoptotic effect compared with caffeine” value is listed as “more potent than caffeine at all dose levels tested”.

As to `Cn1c(=O)c2c(ncn2C)n(C)c1=O` [Caffeine, caffeine], in test [2] (female p53(−/−), UVB 60 mJ/cm^2, 6 hours after UVB), the “enhancement of UVB-induced increase in apoptotic sunburn cells” value is recorded as 563%. In addition, the “effect on apoptosis in non-UVB-treated epidermis” value is reported as “no effect” in test [2] (male p53(−/−), no UVB) and “no effect” in test [3] (male p53(+/+), no UVB). Moreover, the “enhancement of formation of UVB-induced apoptotic sunburn cells vs UVB plus acetone” value in test [3] (female p53(+/+), 1.2 mg in 100 μL acetone immediately, 0.5 and 2 h after UVB 60 mJ/cm^2, 6 hours after UVB) is given as 127%. In test [3] (female p53(+/+), no UVB), the “effect on apoptosis in non-UVB-treated mice” value is recorded as “no effect”.
